Laboratory results taken from article PMC6412891, “Synthesis and Biological Evaluation of Novel Thiazolyl-Coumarin Derivatives as Potent Histone Deacetylase Inhibitors with Antifibrotic Activity” (Molecules, 2019).

Columns and labels:
[1] = target: T1, HDAC6 human recombinant (Homo sapiens, UniProt Q9UBN7); assay: HDAC6 inhibitory activity, fluorometric kit; assay type: biochemical; details: Class II
T1 construct: purchased Enzo Life Science BML-AK516
T1 sequence (Q9UBN7 1-1215): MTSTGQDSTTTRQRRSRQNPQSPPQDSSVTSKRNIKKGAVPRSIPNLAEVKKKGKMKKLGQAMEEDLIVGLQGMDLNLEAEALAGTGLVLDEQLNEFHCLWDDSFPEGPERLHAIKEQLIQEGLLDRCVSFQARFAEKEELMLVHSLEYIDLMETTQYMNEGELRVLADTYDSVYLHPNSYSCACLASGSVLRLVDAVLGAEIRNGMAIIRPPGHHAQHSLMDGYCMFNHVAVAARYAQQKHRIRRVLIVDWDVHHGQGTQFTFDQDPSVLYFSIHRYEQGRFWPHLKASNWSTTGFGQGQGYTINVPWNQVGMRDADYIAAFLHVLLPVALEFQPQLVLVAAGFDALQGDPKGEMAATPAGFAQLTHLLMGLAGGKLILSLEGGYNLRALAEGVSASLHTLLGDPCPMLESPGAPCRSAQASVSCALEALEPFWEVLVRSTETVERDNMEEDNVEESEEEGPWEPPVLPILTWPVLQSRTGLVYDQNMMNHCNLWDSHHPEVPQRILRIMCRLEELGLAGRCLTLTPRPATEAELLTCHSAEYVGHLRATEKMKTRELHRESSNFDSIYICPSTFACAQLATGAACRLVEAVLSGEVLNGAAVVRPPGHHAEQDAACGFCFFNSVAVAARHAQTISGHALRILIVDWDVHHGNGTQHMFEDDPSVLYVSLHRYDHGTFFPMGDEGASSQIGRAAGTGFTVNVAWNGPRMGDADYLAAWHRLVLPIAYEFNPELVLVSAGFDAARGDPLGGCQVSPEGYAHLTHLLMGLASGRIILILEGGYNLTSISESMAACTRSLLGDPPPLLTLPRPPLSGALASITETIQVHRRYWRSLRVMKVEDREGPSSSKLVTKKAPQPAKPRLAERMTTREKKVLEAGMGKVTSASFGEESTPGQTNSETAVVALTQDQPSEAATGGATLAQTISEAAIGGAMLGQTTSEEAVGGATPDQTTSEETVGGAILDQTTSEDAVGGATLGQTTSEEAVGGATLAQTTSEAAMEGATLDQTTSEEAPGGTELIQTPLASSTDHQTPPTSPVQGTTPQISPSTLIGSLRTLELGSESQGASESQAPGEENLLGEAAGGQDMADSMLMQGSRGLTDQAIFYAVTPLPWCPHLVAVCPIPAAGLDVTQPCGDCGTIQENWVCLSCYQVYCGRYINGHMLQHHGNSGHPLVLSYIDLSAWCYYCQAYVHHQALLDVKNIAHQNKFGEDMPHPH

[2] = tested on: procollagen type I expression in CFs; assay: Procollagen type I expression levels in cardiac fibroblasts, western blot; assay type: cell-based, rat; details: for procollagen type I expression levels: 5 μM for 48 h, absence of TGF-β1, vs. control; for procollagen type I expression levels induced by TGF-β1: derivatives 5 μM (TSA 0.1 μM) for 48 h in presence of TGF-β1
Method: In CFs collagen type I secretion is a hallmark of cardiac fibrosis development, which is regulated by HDACs. […] For this purpose, a fixed concentration of 5a, 6a, 7a and 8a derivatives in presence/absence of TGF-β1 were studied, and procollagen type I expression levels were measured by using the western blot technique. TSA was used as control and also for comparative purposes. In Figure 5 (A and B), in the upper panel representative photographs of procollagen type I expression level and GAPDH (used as charge control) are shown, whereas in the lower panel the graphic analyses are observed.
For the analysis of the protein expression of histone H4–acetylated (ac–H4) and total H4 histone, a number of 1 × 10^6 of CFs seeded in 60 mm plates was used, which were incubated with the inhibitory compounds at a concentration of 10 μM, in the absence/presence of TGF–β1(5ng/mL) for 4 h. Subsequently, total histones were extracted by the technique of saline precipitation (high salt extraction). Briefly, CFs were scraped from the plates with 1 mL of cold PBS transferring their contents to Eppendorf tubes to be centrifuged for 60 s at 1500 rpm at 4 °C and re–suspended in 400 μL of cold buffer A (10 mM 4-(2-hydroxyethyl)-1-piperazineethanesulfonic acid-KOH (HEPES-KOH) adjusted to pH 7.9, 1.5 mM MgCl2, 10 mM KCl, 0.5 mM dithiothreitol and 0.2 mM phenylmethylsulfonyl fluoride (PMSF). The suspension is left on ice for 10 min and then placed in the vortex for 10 s. The samples were centrifuged for 60 s, subsequently discarding the supernatant fraction. The obtained pellet was re-suspended in 60 μL of cold C buffer (20 mM HEPES-KOH adjusted to pH 7.9, 25% glycerol, 420 mM NaCl, 1.5 mM MgCl2, 0.2 mM EDTA, dithiothreitol 0.5 mM and 0.2 mM PMSF) and placed on ice for 20 min for saline precipitation. Cell debris is removed by centrifugation for 120 s at 1500 rpm at 4 °C and the supernatant fraction, which contains the DNA binding proteins, is stored at minus 20 °C. For the analysis of α–SMA and procollagen type I expression levels, 3×10^5 CFs seeded in 35 mm plates were used, which were incubated together with inhibitor compounds at a 5 μM, in the absence/presence of TGF–β1 (5 ng/mL) for 48 h. To obtain the total proteins, the CFs were washed three times with cold PBS, then scraped and lysed with 50 μL of radio inmuno-precipitation assay (RIPA) lysis buffer (10 mM Tris–HCl pH 7.2, 5 mM EDTA, 150 mM NaCl, Triton X–100 1%, sodium dodecyl sulfate (SDS) 0.1%, deoxycholate 1%, leupeptin 2 μg/mL, aprotinin 10mM, PMSF 1mM and Na3VO4 100μM). The solution was centrifuged for 15 min at 10,000 rpm and at 4 °C. The supernatant fraction containing the total proteins was stored at minus 20 °C. The concentration of proteins obtained was determined by spectrophotometry at 570 nm, using the Bradford method (Bio-Rad, Hercules, CA, USA).
CFs proteins (25 μg), were subjected to 10% sodium dodecyl sulfate-polyacrylamide gel electrophoresis and finally transferred onto a nitrocellulose membrane (Millipore, Billerica, MA, USA). The membrane was washed twice with tris–buffered saline solution containing 0.1% Tween 20 (TBST). After being blocked with TBST containing 5% nonfat milk for 40 min, the membrane was incubated with primary antibodies in TBST/1% nonfat milk at 4 °C overnight. The membrane was washed three times with TBST for a total of 15 min and then incubated with primary antibodies (ac–H4, H4 total, α-SMA, procollagen type I and GAPDH). Then the membrane was incubated with goat anti–rabbit or anti-mouse IgG antibodies conjugated with horseradish (diluted 1:1000) for 1 h at room temperature. Signals were developed with ECL reagents and exposure to photographic film.
Figure 5 CTz non–substituted inhibit procollagen type I expression levels in cardiac fibroblasts. […] (B) CFs were exposed to 5a, 6a, 7a and 8a at 5 μM for 48 h in presence of TGF–β1. Procollagen type I expression levels were measured by western blot. GAPDH was used as control load.

IC50 [1] [nM]	Compound	procollagen type I expression levels [2]	procollagen type I expression levels induced by TGF-β1 [2]
153 ± 5.3	O=C(CCCCC1CCSS1)Nc1nc(-c2cc3ccccc3oc2=O)cs1 (centres unmarked) [Compound 5a, 5-[1,2]-Dithiolan-3-yl-N-[4-(2-oxo-2H-chromen-3-yl)-thiazol-2-yl]-pentanamide]	decreased in a statistically significant manner	decreased, close to control levels
276 ± 20.9	O=C(Nc1nc(-c2cc3ccccc3oc2=O)cs1)c1ccc(O)c(O)c1 [Compound 6a]	decreased in a statistically significant manner	decreased, close to control levels
5590 ± 184	O=C(O)CCCCC(=O)Nc1nc(-c2cc3ccccc3oc2=O)cs1 [Compound 7a]	had no effect	
98.3 ± 3.5	O=C(CCCCC(=O)Nc1nc(-c2cc3ccccc3oc2=O)cs1)NO [Compound 8a, 5-[4-(2-Oxo-2H-chromen-3-yl)-thiazol-2-yl-carbamoyl]-N-hydroxypentanamide]	decreased in a statistically significant manner	decreased, close to control levels
